The values that follow come from US20110160147A1, “NOVEL DUAL TARGETING A[…]” (priority 2008, published 2011).

For data set [1], the system named is A2780 ovarian carcinoma cells. Put plainly: Cytotoxicity, sulphorodamine B test (A2780). The class given is cell-based, human. Here is the method: (§1) To evaluate the effect of the compound on survival cells, the sulphorodamine B test was used. To measure the effects of the compounds on cell growth, PC3 human prostate carcinoma and A2780 human ovarian carcinoma cells were used. A2780 and PC3 tumour cells were grown RPMI 1640 containing 10% fetal bovine serum (GIBCO).
(§2) Tumour cells were seeded in 96-well tissue culture plates at approximately 10% confluence and were allowed to attach and recover for at least 24 h. Varying concentrations of the drugs were then added to each well to calculate their IC50 value (the concentration which inhibits the 50% of cell survival). The plates were incubated at 37° C. for 72 h. At the end of the treatment, the plates were washed by removal of the supernatant and addition of PBS 3 times. 200 μl PBS and 50 μl of cold 80% trichloroacetic acid (TCA) were added. The plates were incubated on ice for at least 1 h. TCA was removed and the plates were washed 3 times by immersion in distilled-water and dried on paper and at 40° C. for 5 min. Then 200 μl of 0.4% sulphorodamine B in 1% acetic acid were added. The plates were incubated at RT for further 30 min. Sulphorodamine B was removed, the plates were washed by immersion in 1% acetic acid 3 times, then they were dried on paper and at 40° C. for 5 min. Then 200 μl Tris 10 mM were added, the plates were kept under stirring for 20 min. The cell survival was determined by means of optical density using a Multiskan spectrofluorimeter at 540 nm. The amount of cells killed was calculated as the percentage decrease in sulphorodamine B binding compared with control cultures.
(§3) The IC50 values were calculated with the “ALLFIT” program.

For a further data set, the target named is αvβ5 receptors (Homo sapiens, UniProt P06756+P18084). Put plainly: Solid-phase binding assay, inhibition of [125I]Echistatin binding to αvβ5 receptors. The protocol: (§4) The receptor binding assays were performed as described (Orlando R. A., et al., J. Biol. Chem. 1991, 266, 19543). αvβ3 and αvβ5 were diluted to 500 ng/ml and 1 μg/ml, respectively, in coating buffer (20 mM Tris, pH 7.4, 150 mM NaCl, 2 mM CaCl2, 1 mM MgCl2, 1 mM MnCl2) and an aliquot of 100 μL was added to a 96-well microtiter plate and incubated overnight at 4° C. The plate was washed once with blocking/binding buffer (50 mM Tris, pH 7.4, 100 mM NaCl, 2 mM CaCl2, 1 mM MgCl2, 1 mM MnCl2, 1% bovine serum albumin), and then was incubated for additional 2 h at RT The plate was rinsed twice with the same buffer and incubated for 3 h at RT with radiolabeled ligand [^125I]Echistatin (Amersham Pharmacia Biotech) 0.05 nM (0.1 nM for αv β5) in the presence of competing inhibitors. After the incubation, the wells were washed and radioactivity was determined with a gamma-counter (Packard). Non-specific binding of ligand was determined with molar excess (200 nM) of cold echistatin.
(§5) The IC50 values reported in Tables 1 and 2 were calculated as the concentrations of compounds required for 50% inhibition of echistatin binding and were estimated by the Prism GraphPad program. The Ki of the competing ligands were calculated according to the Cheng-Prusoff equation (Cheng Y. C., et al., Biochem. Pharmacol., 1973, 22, 3099). Values are the mean±log standard error of triplicate determinations from two independent experiments.

Data set [2] concerns PC3 prostate carcinoma cells. Briefly: Cytotoxicity, sulphorodamine B test (PC3). The data set is classed as cell-based, human. The protocol: as §1, §2, §3
Data set [3] concerns PC3 prostate carcinoma cells. The data set is classed as cell-based, human. Here is the method: (§6) A2780 human ovarian carcinoma and PC3 prostate carcinoma cells were grown in medium culture RPMI 1640 containing 10% fetal bovine serum and 50 μg/ml gentamycin sulfate. Cells were maintained in a 37° C. incubator with saturated humidity and an atmosphere of 95% air and 5% CO2. A2780 tumour cell line expresses high levels of αvβ5 integrin, and PC3 low levels of both integrins.
(§7) In 96-well tissue culture plates, 50 μl/well of a solution of vitronectin (5 μg/ml) were added for 2 h at room temperature. The solutions were removed upsetting the plates. 50 μl/well of a solution 1% BSA were added for 1 h at RT. The plates were washed by addition of 100 μl/well of medium culture RPMI 1640 without fetal calf serum (FCS). The washing was repeated twice. The molecules were added at different concentrations in the range between 0.039 μM and 20 μM. The solutions were prepared by dilution 1:2 in medium culture without FCS. Tumour cells in the flasks were washed in saline solution before to be detached by scraper, by the addition of 5 ml of medium culture without FCS and 1% BSA. Tumour cells were counted after resuspension and added at an appropriate cellular density (40000-50000 cells/well). The plates were incubated for 1 h at 37° C. in humidified incubator with 5% CO2. Then, the solutions were removed upsetting the plates and washed once with 200 μl/well of PBS with Ca^2+ e Mg^2+. Tumour cells were fixed with 100 μl of a solution 4% paraformaldehyde in 0.2 M Sorensen phosphate buffer pH 7.2-7.4 for 10 min at RT The plates were upset and 100 μl of 1% Toluidine Blu solution were added for 10 min at RT The plates were washed twice by immersion in bi-distilled water and then dried at 60° C. in thermostat incubator (Kottermann). 100 μl/well of 1% SDS were added. The plates were kept under stirring for 20 min at RT and were then evaluated by Victor 1420 multilabel counter (Wallac) at 600 nm.
(§8) The IC50 value as parameter to measure the inhibiting effect of the molecules on tumour cell adhesion to vitronectin was evaluated using “ALLFIT” computer program.

In data set [4] the test system is A2780 ovarian carcinoma cells. The class given is cell-based, human. Here is the method: as §6, §7, §8
A further data set deals with αvβ3 receptor (Homo sapiens, UniProt P05106+P06756). Put plainly: Solid-phase binding assay, inhibition of [125I]Echistatin binding to αvβ3 receptor. Here is the method: as §4, §5
Data set [5] in a line: Stability of the linker-containing conjugate in various assays. The settings on record: various assays conducted. An excerpt: A number of linker-containing peptides as substrates of Cathepsin B have already been described, for example, Phe-Lys, Val-Cit (Dubowchick G. M., et al, Bioconjugate Chem., 2002, 13, 4, 855); Gly-Phe-Leu-Gly (Rejmanova P., et al, Biomaterials, 1985, 6, 1, 45); D-Ala-Phe-Lys (de Groot F. M. H., et al., Mol. Cancer. Ther., 2002, 1, 901). Some of these peptides have been successfully applied when attached to antibodies, which, due to their bulkiness, can shield them from plasma peptidases. However, when we experimented these peptide sequences applied to conjugates containing small ligands, as in the case of oligopeptides, they were immediately cleaved releasing the cytotoxic agent into the circulation, contrary to what described by other authors. […] The above cited paper from Dubowchick deals with cathepsin B-labile dipeptide ligands. The same authors also published four years before another study about the influence of the amino acid at position P2 when Cit amino acid was at P1 position, concluding that the best amino acid in such a position was Val because of hydrophobic interactions within the binding site of cathepsin B (Dubowchick G. M., et al, Bioorg. Med. Chem., 1998, 8, 3341), meanwhile the analogue containing Ala instead of Val contributed to slower noticeably the release of doxorubicin, which was clearly contrary to the objective of the study.

The mark [6] stands for this setting: A2780, 72 h of treatment, read-out: IC50 ± SD, cytotoxicity.
[7] abbreviates: PC3, 72 h of treatment, read-out: IC50 ± SD, cytotoxicity.
[8] abbreviates: PC3, 1 h of treatment, read-out: IC50 ± SD, antiadhesive effect to vitronectin.
Setting [9] is: A2780, 1 h of treatment, read-out: IC50 ± SD, antiadhesive effect to vitronectin.
[10] abbreviates: αvβ5, Cheng-Prusoff equation, read-out: Ki.
Setting [11] is: αvβ5, [125I]Echistatin 0.1 nM, read-out: IC50 ± log SE, inhibition of [125I]Echistatin binding (converted).
Where [12] appears, read: αvβ3, Cheng-Prusoff equation, read-out: Ki.
[13] abbreviates: αvβ3, [125I]Echistatin 0.05 nM, read-out: IC50 ± log SE, inhibition of [125I]Echistatin binding (converted).

Read-outs that look alike come from different tables or passages of the source.

αvβ3 receptor, sequence (P06756 31-889 limits assumed): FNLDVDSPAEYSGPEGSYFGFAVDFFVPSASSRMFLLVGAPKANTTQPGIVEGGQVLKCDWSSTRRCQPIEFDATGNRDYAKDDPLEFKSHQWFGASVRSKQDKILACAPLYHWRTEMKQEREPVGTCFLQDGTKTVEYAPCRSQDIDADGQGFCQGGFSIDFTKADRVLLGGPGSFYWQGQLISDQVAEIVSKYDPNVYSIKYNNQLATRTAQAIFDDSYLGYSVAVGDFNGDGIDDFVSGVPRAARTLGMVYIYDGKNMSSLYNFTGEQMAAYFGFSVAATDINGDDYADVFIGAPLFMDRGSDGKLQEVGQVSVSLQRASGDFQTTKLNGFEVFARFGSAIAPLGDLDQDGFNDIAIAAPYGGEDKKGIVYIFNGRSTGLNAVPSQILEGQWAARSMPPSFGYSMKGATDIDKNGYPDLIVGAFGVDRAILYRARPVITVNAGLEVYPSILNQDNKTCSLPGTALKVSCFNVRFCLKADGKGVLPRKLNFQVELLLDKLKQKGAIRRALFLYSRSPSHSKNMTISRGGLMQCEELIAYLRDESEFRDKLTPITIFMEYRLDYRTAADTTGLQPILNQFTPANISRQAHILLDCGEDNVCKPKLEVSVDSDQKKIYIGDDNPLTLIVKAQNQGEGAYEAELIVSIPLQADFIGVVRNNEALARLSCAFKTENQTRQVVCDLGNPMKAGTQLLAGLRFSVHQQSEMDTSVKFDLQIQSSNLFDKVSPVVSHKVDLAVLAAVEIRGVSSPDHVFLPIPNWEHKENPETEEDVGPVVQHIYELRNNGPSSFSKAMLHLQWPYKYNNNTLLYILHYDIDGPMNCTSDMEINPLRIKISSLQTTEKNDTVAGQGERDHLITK
αvβ3 receptor, sequence (P06756 891-1048 partner limits assumed): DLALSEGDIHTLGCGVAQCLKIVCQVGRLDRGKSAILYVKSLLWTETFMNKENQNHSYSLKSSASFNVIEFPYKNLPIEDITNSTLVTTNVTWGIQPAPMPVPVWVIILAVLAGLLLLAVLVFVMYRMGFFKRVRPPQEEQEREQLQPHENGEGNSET
αvβ3 receptor, sequence (P05106 27-788): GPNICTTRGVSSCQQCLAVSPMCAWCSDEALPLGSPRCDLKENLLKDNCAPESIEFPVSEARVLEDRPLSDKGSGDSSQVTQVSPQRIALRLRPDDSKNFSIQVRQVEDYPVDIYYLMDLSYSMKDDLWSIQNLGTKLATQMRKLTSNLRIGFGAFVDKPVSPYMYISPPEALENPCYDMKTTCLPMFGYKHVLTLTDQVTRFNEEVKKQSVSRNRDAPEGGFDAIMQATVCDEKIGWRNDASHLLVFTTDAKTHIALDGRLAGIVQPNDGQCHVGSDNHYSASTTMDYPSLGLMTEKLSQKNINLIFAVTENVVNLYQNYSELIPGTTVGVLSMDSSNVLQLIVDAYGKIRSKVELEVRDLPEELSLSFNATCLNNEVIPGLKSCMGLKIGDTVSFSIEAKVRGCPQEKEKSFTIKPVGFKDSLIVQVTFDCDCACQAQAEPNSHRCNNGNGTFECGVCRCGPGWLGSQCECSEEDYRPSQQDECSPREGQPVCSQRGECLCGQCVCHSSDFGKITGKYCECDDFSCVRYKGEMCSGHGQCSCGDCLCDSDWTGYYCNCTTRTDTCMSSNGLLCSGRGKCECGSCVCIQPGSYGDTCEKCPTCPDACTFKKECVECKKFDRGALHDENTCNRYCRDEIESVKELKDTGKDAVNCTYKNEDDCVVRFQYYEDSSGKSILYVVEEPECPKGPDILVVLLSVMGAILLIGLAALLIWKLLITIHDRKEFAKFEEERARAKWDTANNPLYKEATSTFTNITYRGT
αvβ5 receptors, sequence (P06756 31-889 limits assumed): as the sequence (P06756 31-889 limits assumed) above
αvβ5 receptors, sequence (P06756 891-1048 partner limits assumed): as the sequence (P06756 891-1048 partner limits assumed) above
αvβ5 receptors, sequence (P18084 24-799): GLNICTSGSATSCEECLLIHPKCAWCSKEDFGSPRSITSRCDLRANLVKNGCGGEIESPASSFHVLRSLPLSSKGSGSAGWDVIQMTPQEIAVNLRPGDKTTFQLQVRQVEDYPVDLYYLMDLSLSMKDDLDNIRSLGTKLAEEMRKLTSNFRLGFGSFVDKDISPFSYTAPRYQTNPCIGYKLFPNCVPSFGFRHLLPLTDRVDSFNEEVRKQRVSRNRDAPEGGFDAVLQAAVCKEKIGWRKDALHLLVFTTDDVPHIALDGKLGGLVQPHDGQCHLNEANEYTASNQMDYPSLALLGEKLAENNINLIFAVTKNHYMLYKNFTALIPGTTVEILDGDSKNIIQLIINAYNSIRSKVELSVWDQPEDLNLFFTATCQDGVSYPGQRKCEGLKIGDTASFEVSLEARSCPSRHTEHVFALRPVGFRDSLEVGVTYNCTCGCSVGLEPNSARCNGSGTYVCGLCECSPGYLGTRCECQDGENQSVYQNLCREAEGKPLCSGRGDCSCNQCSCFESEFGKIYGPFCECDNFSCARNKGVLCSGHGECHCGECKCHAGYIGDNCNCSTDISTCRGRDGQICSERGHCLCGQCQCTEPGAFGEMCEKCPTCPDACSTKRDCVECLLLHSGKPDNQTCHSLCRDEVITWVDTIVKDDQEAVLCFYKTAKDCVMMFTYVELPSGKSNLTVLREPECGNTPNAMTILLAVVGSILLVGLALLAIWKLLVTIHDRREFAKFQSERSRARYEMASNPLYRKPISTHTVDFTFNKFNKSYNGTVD

Consider `CC[C@@]1(O)C(=O)OCc2c1cc1n(c2=O)Cc2c-1nc1ccccc1c2C=NOCCNC(=O)OCc1ccc(NC(=O)[C@H](CCCNC(N)=O)NC(=O)[C@H](C)NC(=O)c2cn(CCOCCOCCOCCC(=O)NCc3ccc(C[C@@H]4NC(=O)[C@@H](Cc5ccccc5)NC(=O)[C@H](CC(=O)O)NC(=O)CNC(=O)[C@H](CCCNC(=N)N)NC4=O)cc3)nn2)cc1` [ST4167], for which the IC50 is 30 ± 3 nM in data set [1] (setting [6]); 18.4 ± 0.89 nM at αvβ5 receptors; 1000 ± 100 nM in data set [2] (setting [7]); 560 ± 70 nM in data set [3] (setting [8]); 670 ± 20 nM in data set [4] (setting [9]); 11 ± 0.8 nM at αvβ3 receptor. In addition, the Ki was determined as 13.8 nM at αvβ5 receptors and 8.7 nM on αvβ3 receptor.
With Echistatin [reference compound], the inhibition constant (Ki) came to 0.33 nM at αvβ5 receptors (setting [10]) and 0.26 nM on αvβ3 receptor (setting [12]). Also, the IC50 on αvβ5 receptors (setting [11]) was 0.29 ± 0.02 nM; at αvβ3 receptor (setting [13]) it was 0.28 ± 0.08 nM.
On to `CC[C@@]1(O)C(=O)OCc2c1cc1n(c2=O)Cc2c-1nc1ccccc1c2C=NOCCNC(=O)OCc1ccc(NC(=O)[C@H](CCCNC(N)=O)NC(=O)[C@H](C)NC(=O)COCCOCCOCC(=O)NCc2cn(CC(=O)N[C@@H](CCC(=O)NCCOCCOCCOCCC(=O)NCc3ccc(C[C@@H]4NC(=O)[C@@H](Cc5ccc(O)cc5)NC(=O)[C@H](CC(=O)O)NC(=O)CNC(=O)[C@H](CCCNC(=N)N)NC4=O)cc3)C(=O)NCCOCCOCCOCCC(=O)NCc3ccc(C[C@@H]4NC(=O)[C@@H](Cc5ccc(O)cc5)NC(=O)[C@H](CC(=O)O)NC(=O)CNC(=O)[C@H](CCCNC(=N)N)NC4=O)cc3)nn2)cc1` [ST5744TF1], for which the IC50 in data set [1] (human) was 8 ± 0.5 nM; at αvβ5 receptors (setting [11]) it was 3.84 ± 0.12 nM; in data set [2] (human), 1000 ± 20 nM; in data set [3] (1 h), 390 ± 90 nM; in data set [4] (1 h) it was 450 ± 20 nM; at αvβ3 receptor (setting [13]) it was 3.01 ± 0.11 nM. Also, the results for the Ki on αvβ5 receptors (setting [10]) and on αvβ3 receptor (setting [12]) were 2.95 nM and 2.4 nM, respectively.
For `CC[C@@]1(O)C(=O)OCc2c1cc1n(c2=O)Cc2c-1nc1ccccc1c2C=NOCCNC(=O)OCc1ccc(NC(=O)[C@H](CCCCN)NC(=O)[C@H](Cc2ccccc2)NC(=O)COCCOCCOCC(=O)NCc2ccc(C[C@@H]3NC(=O)[C@@H](Cc4ccccc4)NC(=O)[C@H](CC(=O)O)NC(=O)CNC(=O)[C@H](CCCNC(=N)N)NC3=O)cc2)cc1` [ST3280], the IC50 was determined as 8.4 ± 0.6 nM in data set [1] (setting [6]); 34.4 ± 0.8 nM at αvβ5 receptors; 200 ± 30 nM in data set [2] (setting [7]); 1800 ± 400 nM in data set [3] (setting [8]); 2700 ± 300 nM in data set [4] (setting [9]); 9.7 ± 0.06 nM on αvβ3 receptor. Further, the figures for the Ki at αvβ5 receptors and on αvβ3 receptor were 23 nM and 8.5 nM, respectively. In addition, in data set [5], the stability entry is on record as “highly unstable”.
For the compound `CC[C@@]1(O)C(=O)OCc2c1cc1n(c2=O)Cc2c-1nc1ccccc1c2C=NOCCNC(=O)OCc1ccc(NC(=O)[C@H](CCCNC(N)=O)NC(=O)[C@H](C)NC(=O)c2cn(CCOCCOCCOCCC(=O)N[C@@H](CCCNC(N)=O)C(=O)NCCOCCOCCOCCC(=O)NCc3ccc(C[C@@H]4NC(=O)[C@@H](Cc5ccccc5)NC(=O)[C@H](CC(=O)O)NC(=O)CNC(=O)[C@H](CCCNC(=N)N)NC4=O)cc3)nn2)cc1` [ST4215], the 50% inhibitory concentration (IC50) came out at 9 ± 0.7 nM in data set [1] (setting [6]), 2500 ± 700 nM in data set [2] (setting [7]), 4600 ± 800 nM in data set [3] (setting [8]) and 1700 ± 200 nM in data set [4] (setting [9]).
